Assays:
[1] = target: T1, Butyrylcholinesterase purified from human blood serum (Homo sapiens, UniProt P06276); experiment: In vitro hydrolysis by serum cholinesterase (butyrylcholinesterase); assay type: in vitro ADME; conditions: for hydrolysis product after incubation with butyrylcholinesterase: 24-hour incubation
T1 construct: Butyrylcholinesterase purified from human blood serum; purchased Sigma; host or cells: purified from human blood serum
Description: Compound 1 is rapidly hydrolyzed by butyrylcholinesterase in the bloodstream. Butyrylcholinesterase purified from human blood serum was used to test the resistance of the disclosed compounds to hydrolysis.
All enzymatic assays were performed with 50 μM compound in 0.1M phosphate buffer, pH 7.4, at 37° C. with stirring, unless otherwise noted. Butyrylcholinesterase stock solutions from human serum (Sigma, St. Louis, Mo.) were prepared at 100 U/mL in 0.1 M phosphate buffer, pH 7.4, and stored at −20° C. until use. Hydrolysis was monitored on an 8452A diode array spectrophotometer (Hewlett-Packard). Product peak wavelength absorption was immediately monitored upon addition of compound. Absorbances for complete hydrolysis were determined when there were no further detectable changes. […] All hydrolysis assays were performed in triplicate, and final rate constants are expressed as the mean±SD of the three individually determined rate constants. In some experiments with compound 1, samples were taken at the beginning and end of the assay to verify the hydrolysis product and the completion of the reaction by HPLC. These samples were compared to compounds 1 and 3 on a C18 column eluted with 0.1% TFA in water/acetonitrile. Activity of chymotrypsin (bovine, Worthington Biochemical Co., 190 μg/mL) was verified with 90 μM 4-nitrophenyl acetate in 0.1 M HEPES solution, pH 6.5, at 37° C. with stirring. Hydrolysis product was monitored at 404 nm for 10 min. Activity of proteinase K (from Engyodontium album, Sigma, 165 μg/mL) was verified with 16.5 mg/mL bovine serum albumin in 0.1 M phosphate buffer, pH 7.4, at 37° C. Samples were taken at time point increments up to 2 hours when the reaction reached completion. Samples were analyzed with 12% SDS-PAGE, stained with 0.1% Coomassie Blue.

[2] = test system: heteromeric rod CNG channels consisting of CNGA1 and CNGB1 subunits; experiment: CNG channel block at subsaturating cGMP (state dependence of block); assay type: cell-based; conditions: subsaturating cGMP (50 or 100 μM), +50 mV, normalized to KD at 2 mM cGMP
Excerpt: KD values at saturating cGMP were corrected for ion accumulation. Solid lines indicate simulations for exclusive closed channel blockers, using KD/KDsat=(1−Fsat)/(1−FsatI/Imax), where Fsat is the estimated fraction of open heteromeric rod channels in saturating cGMP assuming Fsat=0.3 (a), 0.56 (b), or 0.78 (c). The dotted line is a simulation for a blocker with no preference for state, or KD/KDsat=1. The dashed line is a simulation for an exclusive open channel blocker, using KD/KDsat=(I/Imax)^−1.
The solid lines in FIG. 4 marked a, b, and c represent the expected relationship between KD and the fraction of closed channels for an exclusive closed channel blocker. Each of a, b, and c uses one estimate for the probability of closed heteromeric retinal rod channels at saturating cGMP. The simulations are described in the following references: Matthews G et al, J Physiol 403, 389-405 (1988); Taylor W R & Baylor D A, J Physiol 483 567-582 (1995); and Bucossi G et al, Biophys J 72, 1165-1181 (1997), all of which are incorporated by reference herein. The dotted line represents a simulation of a blocker with no preference as to conformational of the channel. The dashed line represents a simulation for an exclusive open channel blocker.
Recordings from inside-out excised patches were made 3-7 days after oocyte injection on an Axopatch 1D® amplifier (Axon Instruments, Foster City, Calif.). Briefly, oocyte vitelline membranes were removed in solution containing 200 mM K aspartate, 20 mM KCl, 1 mM MgCl2, 10 mM EGTA, 10 mM HEPES, pH 7.4. Oocytes were placed in a recording chamber in a solution containing 130 mM NaCl, 2 mM HEPES, 0.02 mM EDTA, 1 mM EGTA, pH 7.6, and borosilicate glass electrodes (1-3 MΩ) were filled with identical solution. Macroscopic currents were filtered at 1 kHz and sampled at 2 kHz using pCLAMP 8.0® software (Axon Instruments). Channels were either fully activated with 2 mM or partially activated with 50 and 100 μM cGMP. […] Glass syringes and Teflon tubing were used to minimize the binding of compounds to surfaces; concentrations passing through the perfusion system were verified by absorbance. Current traces were digitally filtered at 300 Hz (Gaussian) and averaged using Clampfit 8.2® software. Currents in the absence of cGMP were subtracted from all currents analyzed. KD values were determined and expressed as the mean±SD.

T1 sequence (P06276 29-602): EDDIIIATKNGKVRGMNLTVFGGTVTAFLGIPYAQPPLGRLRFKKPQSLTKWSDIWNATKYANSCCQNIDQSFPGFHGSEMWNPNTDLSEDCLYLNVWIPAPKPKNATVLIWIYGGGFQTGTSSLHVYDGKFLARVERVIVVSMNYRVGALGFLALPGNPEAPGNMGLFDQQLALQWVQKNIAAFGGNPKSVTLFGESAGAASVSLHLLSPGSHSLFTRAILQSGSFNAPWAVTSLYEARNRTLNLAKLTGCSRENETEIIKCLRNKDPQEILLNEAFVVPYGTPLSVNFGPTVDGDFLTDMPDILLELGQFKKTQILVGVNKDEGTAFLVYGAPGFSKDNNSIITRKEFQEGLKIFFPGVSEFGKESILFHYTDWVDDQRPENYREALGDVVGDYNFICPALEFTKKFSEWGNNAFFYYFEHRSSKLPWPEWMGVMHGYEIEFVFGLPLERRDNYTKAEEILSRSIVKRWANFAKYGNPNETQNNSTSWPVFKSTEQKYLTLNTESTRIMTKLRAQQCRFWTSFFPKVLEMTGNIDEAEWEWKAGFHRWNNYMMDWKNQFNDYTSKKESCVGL

SMILES | Hydrolysis rate ([1]; 50 μM compound, 0.1M phosphate buffer pH 7.4, 37° C., mean±SD of triplicate) [nmol/min/mg] | state dependence of block (KD vs fraction of closed channels) [2] | hydrolysis product after incubation with butyrylcholinesterase [1]
CCCCCCCCNc1ccc(C(=O)OCCN(C)C)cc1 [Compound 5, 2-(Dimethylamino)ethyl 4-(Octylamino)benzoate, reference compound] | 213 ± 31 | better fit the results expected of a closed channel blocker | –
CCCCCCCCNc1ccc(C(=S)NCCN(C)C)cc1 [Compound 9, 4-(Octylamino)-N-(2-(dimethylamino)ethyl)benzothioamide] | – | better fit the results expected of a closed channel blocker | no hydrolysis product was detected
CCCCNc1ccc(C(=S)NCCN(C)C)cc1 [Compound 8, 4-(Butylamino)-N-(2-(dimethylamino)ethyl)benzothioamide] | – | better fit the results expected of a closed channel blocker | no hydrolysis product was detected
